# Article PMC10301896 (Pharmaceutics, 2023)
# Values joined by “and” are separate entries in the source; they are usually repeats but may differ in a detail not shown here. Equal values may be shown once. “Also recorded” adds a separate entry of the source. Read-outs that look alike come from different tables or passages of the source.
# What was measured:
# [1] = Chelation with Al3+ ion in vitro (precipitation with AlCl3); assay type: physicochemical; conditions: for Precipitation (%): drug 50 μM, pH 6.5, 30 min, 24 °C
# Method: AlCl3 was also dissolved in the same buffer at a concentration of 50 μM, 100 μM, 200 μM, 1 mM, or 2 mM, and each drug solution and AlCl3 solution were mixed at an equal volume. The mixture solution was shaken, stood for 30 min at 24 °C and centrifuged. The supernatant was filtrated through a syringe filter with 0.22 μm of pore size (Millipore, Tokyo, Japan).
# [2] = control rabbits
# [3] = Chemical stability in phosphate buffer solutions; assay type: physicochemical; conditions: 37 °C
# Method: (§1) Briefly, to examine the chemical stability of CFX-EHE, pH 6.5 and pH 7.4 phosphate buffer solutions (PBS) were used. Enzymatic stability of CFX-EHE (the initial concentration was 0.1 mM) was determined at 1, 5, and 15 min after the start of incubation at 37 °C using the following specimen: rat 10% plasma obtained from male Sprague Dawley (SD) rats, rat 2% small intestinal mucosal homogenates, and rat 2% liver homogenates in the same manner as described previously. […].
# [4] = Solubility in pH 2 buffer and 0.1 M Tris-HCl buffer (pH 6.5); assay type: physicochemical; conditions: thermodynamic from solid, 25 °C
# Method: The mixture was centrifuged at 3000 rpm for 10 min, and the supernatant was filtered through a syringe filter with 0.22 μm of pore size (Millipore, Tokyo, Japan), and the concentrations of the compound in the filtrate were measured by HPLC.
# P. aeruginosa ATCC27853 = test: MIC, agar plate dilution method; assay type: cell-based, Pseudomonas (P.) aeruginosa
# E. coli ATCC25922 = test: MIC, agar plate dilution method; assay type: cell-based, Escherichia (E.) coli
# Method: The bacterial numbers of S. aureus, E. coli, and P. aeruginosa were adjusted to McFarland 0.5 ([…]) with the sterilized isotonic NaCl solution. […] Facultative anaerobic and aerobic bacteria were cultured under the aerobic condition at 37 °C for 20 h.
# [5] = Enzymatic stability in rat 10% plasma; assay type: in vitro ADME; conditions: 37 °C
# Method: as §1
# S. aureus ATCC29213 = test: MIC, agar plate dilution method; assay type: cell-based, Staphylococcus (S.) aureus
# Method: The bacterial numbers of S. aureus, E. coli, and P. aeruginosa were adjusted to McFarland 0.5 ([…]) with the sterilized isotonic NaCl solution. These bacterial solutions were inoculated in Mueller–Hinton broth containing CFX or CFX-EHE. Facultative anaerobic and aerobic bacteria were cultured under the aerobic condition at 37 °C for 20 h.
# [6] = Enzymatic stability in rat 2% small intestinal mucosal homogenates; assay type: in vitro ADME; conditions: rat 2% mucosal homogenate, 37 °C
# Method: as §1
# [7] = Partition coefficient, chloroform/0.1 M Tris-HCl buffer (pH 6.5); assay type: physicochemical
# Method: Briefly, chloroform and 0.1 M Tris-HCl buffer (pH 6.5) were mutually saturated before experiments. […] Four milliliters of each drug solution were added to 4 mL of chloroform, and the mixture was vigorously shaken for 30 min at 25 °C. After centrifugation at 3000 rpm for 10 min, the concentration of the compound in both phases was determined by HPLC.
# [8] = Enzymatic stability in rat 2% liver homogenates; assay type: in vitro ADME; conditions: 37 °C
# Method: as §1
# [9] = cited from earlier work; for Rate of adsorption onto solid Al(OH)3: quinolones 50 µM
# [10] = mixed-breed dogs, dose of 5 mg/kg; cited from earlier work
# [11] = cited from earlier work
# [12] = rats; cited from earlier work
# [13] = cited from earlier work; remark: listed apart in the source
# [14] = sheep, dose of 2 mg/kg; cited from earlier work
# [15] = cited from earlier work; remark: listed apart in the source
# [16] = 10% plasma, 1 min incubation; cited from earlier work
# [17] = 2% liver homogenates, 1 min incubation; cited from earlier work
# [18] = 2% mucosal homogenate, 1 min incubation; cited from earlier work
# [19] = cited from earlier work; remark: listed apart in the source
# [20] = individual rabbits
# Excerpt: Rabbits were supplied solid food for rabbits (CR-3M, CLEA Japan, Inc., Tokyo, Japan), and the average amount of CR-3M that each rabbit ingested was 100–110 g/day. CR-3M contains various vitamins and cationic metals including Ca, Mg, and iron (Fe^2+, Fe^3+) in addition to various energy sources. […] Coprophagy was not prevented in control rabbits.
# To estimate gastric contents, gastric Ca and Mg concentrations, and gastric pH in the untreated control (not fasted), control (fasted) and EDTA-treated rabbits, rabbits were sacrificed by intraperitoneal injection of an excess amount of pentobarbital. Rabbits were opened along the midline and their stomach was isolated. The stomach contents were taken out into a test tube and weighed, and the suspension was centrifuged at 3000 rpm for 10 min to measure the amount of gastric water. Then, concentrations of the Ca and Mg in the supernatant were measured by using L type Wako Ca (Fujifilm, Tokyo, Japan) and L type Wako Mg N (Fujifilm, Tokyo, Japan), respectively, and an automated clinical chemistry analyzer, TBA-nx360 (Canon, Tokyo, Japan). The pH of gastric water was also determined.
# [21] = rats; cited from earlier work; remark: listed apart in the source
# [22] = Mucosal damage after EDTA treatment: oral absorption of FD-4; conditions: >10 mL of 1 mg/mL EDTA 2Na orally, rabbits
# Method: FD-4 was administered orally by stomach intubation at 10 mg/kg and 10 mL water. Blood (100 μL each) was taken periodically at 0, 0.5, 1, 2, and 4 h after administration from the ear vein. […] The concentrations of FD-4 in plasma were determined by Spectro fluorophotometer RF-1500 (Shimadzu Co., Ltd., Kyoto, Japan) using an excitation and emission wavelength of 480 nm and 520 nm, respectively.
# [23] = gastric water, EDTA-treated rabbits
smiles,measurement,setting,value
"O=C(O)c1cn(C2CC2)c2cc(N3CCNCC3)c(F)cc2c1=O [CFX, ciprofloxacin]",Precipitation (%),[1]; AlCl3 25 μM,20.4 ± 17.6%
same,Precipitation (%),[1]; AlCl3 50 μM,22.9 ± 16.7%
same,Precipitation (%),[1]; AlCl3 100 μM,39.2 ± 17.7%
same,Precipitation (%),[1]; AlCl3 500 μM,55.5 ± 18.0%
same,Precipitation (%),[1]; AlCl3 1 mM,73.4 ± 2.0%
same,β,"[2]; […] iv infusion, LFX 20, CFX 30, TC 10 mg/kg",0.34 ± 0.04 h⁻¹
CCOC(=O)OC(C)OC(=O)c1cn(C2CC2)c2cc(N3CCNCC3)c(F)cc2c1=O (centres unmarked) [CFX-EHE],Precipitation (%),[1]; AlCl3 25 μM,0%
same,Precipitation (%),[1]; AlCl3 50 μM,0%
same,Precipitation (%),[1]; AlCl3 100 μM,0%
same,Precipitation (%),[1]; AlCl3 500 μM,0%
same,Hydrolysis (%),"[3]; 0.1 M PBS (pH 6.5), 1 min",0%
same,Hydrolysis (%),"[3]; 0.1 M PBS (pH 6.5), 5 min",0%
same,Hydrolysis (%),"[3]; 0.1 M PBS (pH 6.5), 15 min",0%
same,Hydrolysis (%),"[3]; 0.1 M PBS (pH 7.4), 1 min",0%
same,Hydrolysis (%),"[3]; 0.1 M PBS (pH 7.4), 5 min",0%
same,Hydrolysis (%),"[3]; 0.1 M PBS (pH 7.4), 15 min",0%
same,solubility at 30 min,"[4]; aqueous buffer, 0.1 M Tris-HCl buffer (pH 6.5), read-out: Solubility pH 6.5",3080 µg/mL
same,solubility at 30 min,"[4]; pH 2 buffer adjusted with hydrochloric acid, pH 2, aqueous buffer, read-out: Solubility pH 2.0",4280 µg/mL
same,MIC of CFX-EHE relative to CFX,P. aeruginosa ATCC27853; P. aeruginosa,more than 10 times
same,MIC,"P. aeruginosa ATCC27853; Pseudomonas aeruginosa, P. aeruginosa ATCC27853, 37 °C, 20 h",8 µg/mL
same,MIC of CFX-EHE relative to CFX,E. coli ATCC25922; E. coli,more than 10 times
same,MIC,"E. coli ATCC25922; Escherichia coli, E. coli ATCC25922, 37 °C, 20 h",0.5 µg/mL
same,Hydrolysis (%),[5]; 1 min,9.5 ± 9.0%
same,Hydrolysis (%),[5]; 5 min,27.2 ± 1.0%
same,Hydrolysis (%),[5]; 15 min,71.1 ± 17.4%
same,MIC of CFX-EHE relative to CFX,S. aureus ATCC29213; S. aureus,more than 10 times
same,MIC,"S. aureus ATCC29213; Staphylococcus aureus, S. aureus ATCC29213, 37 °C, 20 h",4 µg/mL
same,Hydrolysis (%),[6]; 1 min,20.4 ± 2.7%
same,Hydrolysis (%),[6]; 5 min,59.0 ± 9.2%
same,Hydrolysis (%),[6]; 15 min,85.9 ± 11.5%
same,log PC,"[7]; chloroform/0.1 M Tris-HCl buffer (pH 6.5), 25 °C",0.79
same,PC (partition coefficient),"[7]; chloroform/0.1 M Tris-HCl buffer (pH 6.5), 25 °C, mean of 3",6.12
same,Apparent PC of CFX-EHE relative to CFX,[7]; chloroform/pH 6.5 buffer,13 fold
same,Hydrolysis (%),[8]; 1 min,38.4 ± 15.8%
same,Hydrolysis (%),[8]; 5 min,69.5 ± 9.5%
same,Hydrolysis (%),[8]; 15 min,94.8 ± 3.4%
"CC1COc2c(N3CCN(C)CC3)c(F)cc3c(=O)c(C(=O)O)cn1c23 (centres unmarked) [OFX, ofloxacin]",Elution rate of adsorbed quinolones with water,[9],20.9%
same,Rate of adsorption onto solid Al(OH)3,[9],47.2%
"C[C@H]1COc2c(N3CCN(C)CC3)c(F)cc3c(=O)c(C(=O)O)cn1c23 [LFX, levofloxacin]",Absolute oral bioavailability,[10],71.93 ± 9.75%
same,Elution rate of adsorbed quinolones with water,[9],17.9%
same,Rate of adsorption onto solid Al(OH)3,[9],48.1%
same,Precipitation percentage,"[11]; 50 μM of AlCl3, same in vitro conditions",12.4%
same,Dose absorbed as the intact form from the intestinal tract into the portal system,[12],approximately 90%
same,"Total plasma clearance (CLtotal), Doseiv/AUC0–∞",[2]; iv infusion,13.7 mL/min/kg
same,PC,[13],5.6
same,Absolute oral bioavailability,[14],114 ± 27.7%
same,Oral bioavailabilities in humans,"[15]; LFX 200–750 mg, CFX 200–1000 mg, TC 250 mg, ref references listed in the discussion section",70–100% (200–750 mg)
same,"Fecal recovery, % of an intravenous dose","[15]; human, in vivo, iv",approximately 15%
same,Oral bioavailability,"[15]; human, in vivo, po, 200 mg",69 ± 7%
same,Oral bioavailability,"[15]; human, in vivo, po, 250 mg",79 ± 47%
same,Oral bioavailability,"[15]; human, in vivo, po, 500 mg",82 ± 13%
same,Oral bioavailability,"[15]; human, in vivo, po",approximately 70%
same,Oral bioavailability,"[15]; humans, review article",approximately 100%
"CCOC(=O)OC(C)OC(=O)c1cn2c3c(c(N4CCN(C)CC4)c(F)cc3c1=O)OC[C@@H]2C (some centres unmarked) [LFX-EHE, levofloxacin-ethoxycarbonyl 1-ethyl hemiacetal ester]",Precipitation in the presence of AlCl3,[11]; 1 mM of AlCl3 (drug: AlCl3 = 1:20),not precipitated
same,Average hydrolysis %,[16],8.2%
same,Average hydrolysis %,[17],17.7%
same,PC,[13],75.2
same,PC (lipophilicity) of LFX-EHE relative to LFX,[13],13 fold
same,Average hydrolysis %,[18],17.4%
same,Solubility at pH 2.0,[19],16.54 mg/mL
"CCn1cc(C(=O)O)c(=O)c2cc(F)c(N3CCNCC3)nc21 [ENX, enoxacin]",Elution rate of adsorbed quinolones with water,[9],18.3%
same,Rate of adsorption onto solid Al(OH)3,[9],61.0%
"O=C([O-])CN(CCN(CC(=O)O)CC(=O)O)CC(=O)[O-].[Na+].[Na+] [EDTA 2Na, disodium ethylenediamine tetraacetic acid]",Effect of added EDTA 2Na on precipitation of CFX with AlCl3,"[1]; EDTA 2Na 4 mg/mL, 12 mM added to mixture solutions of CFX and AlCl3",completely inhibited
same,Gastric Contents (g),"[20]; EDTA-treated rabbits (free access to 1 mg/mL EDTA 2Na, 10 mL at 1 h before; coprophagy prevented)",(3) 13.1 (hair > pellets) g; also recorded: (1) 9.5 (hair > pellets) g; also recorded: (2) 7.8 (hair > pellets) g
same,Gastric pH,[20]; EDTA-treated rabbits,1.3 and 1.6 and 1.2
same,Water Contents,[20]; EDTA-treated rabbits,10.5 mL and 6.7 mL and 4.8 mL
same,Concentrations Ca,[20]; [23],1.9 mg/dL and 2.6 mg/dL and 1.3 mg/dL
same,Concentrations Mg,[20]; [23],1.9 mg/dL and 1.6 mg/dL
same,Lowest effective dose to increase the permeability of dichloromethylene bisphosphonate,[21],100 mg/kg
same,"Minimal effective dose to increase membrane permeability to 4-amino-1-hydroxybutylidene-1,1-bisphosphonate",[21],10 mg/kg
same,Mucosal damage after EDTA treatment,[22],without causing mucosal damage
